{
  "source": "patent US6653339B2",
  "about": "“Method of treating irritable bowel syndrome” (Pfizer Inc., priority 2001, dated 2003)",
  "test_system": "irritable bowel syndrome",
  "assay": "Clinical Study 2, controlled (slow) release darifenacin once daily vs placebo in irritable bowel syndrome",
  "type": "in vivo, human",
  "settings": "12 weeks; for Constipation % of patients reporting AEs / Dry Mouth % of patients reporting AEs / Global Rating % Reduction from baseline / Loose Stool % Reduction from baseline / Pain Score % Reduction from baseline / Total AE % of patients reporting AEs / Urgency % Reduction from baseline / Vision % of patients reporting AEs: uncorrected",
  "description": "The invention may be illustrated by the following clinical studies wherein the treatment of irritable bowel syndrome using darifenacin administered as a once-daily controlled (slow) release formulation in accordance with the prior art is compared with treatment using darifenacin administered as a thrice daily immediate release formulation in accordance with the present invention. Specifically, Clinical Studies 1 and 2 used controlled (slow) release formulations of darifenacin administered once daily (od) and Clinical Study 3 used an immediate release formulation of darifenacin administered three times daily (tid).\nDuring each clinical study, four efficacy measures of irritable bowel syndrome severity were measured, viz. ‘Pain Score’ (Average daily pain score, a composite of severity and number of days of pain), ‘Loose Stool’ (Number of days on which loose or watery stool occurred), ‘Urgency’ (Number of days on which urgency occured) and so-called ‘Global Rating’ (Patient rating of their condition taking into account all symptoms, 0=no problems). Adverse events (AE) such as constipation, dry mouth and visual abnormalities were also recorded.\nClinical Study 2 was a multi-centre, double-blind, randomised, placebo-controlled parallel group study in which four dose strengths of darifenacin of 3.75 mg, 7.5 mg, 15 mg and 30 mg dosed od were compared with placebo. Treatment lasted 12 weeks following a 2-week run-in period.\nThe controlled (slow) release dosage forms of darifenacin used in Clinical Studies 1 and 2 were 3.75 mg, 7.5 mg, 15.0 mg and 30.0 mg tablets having the following compositions: […]",
  "key": {"[1]": {"settings": "controlled release tablet 3.75 mg od"}, "[2]": {"settings": "controlled release tablet 7.5 mg od"}, "[3]": {"settings": "controlled release tablet 15 mg od"}, "[4]": {"settings": "controlled release tablet 30 mg od"}},
  "data": [
    {"smiles": "NC(=O)C(c1ccccc1)(c1ccccc1)[C@@H]1CCN(CCc2ccc3c(c2)CCO3)C1", "note": "[darifenacin]", "values": [
      {"measurement": "Constipation % of patients reporting AEs corrected for placebo", "setting": "[1]", "value": 4.5, "unit": "%"},
      {"measurement": "Dry Mouth % of patients reporting AEs corrected for placebo", "setting": "[1]", "value": 4.4, "unit": "%"},
      {"measurement": "Global Rating % Reduction from baseline corrected for placebo", "setting": "[1]", "value": "−7", "unit": "%"},
      {"measurement": "Loose Stool % Reduction from baseline corrected for placebo", "setting": "[1]", "value": 8, "unit": "%"},
      {"measurement": "Pain Score % Reduction from baseline corrected for placebo", "setting": "[1]", "value": "−9", "unit": "%"},
      {"measurement": "Total AE % of patients reporting AEs corrected for placebo", "setting": "[1]", "value": 6, "unit": "%"},
      {"measurement": "Urgency % Reduction from baseline corrected for placebo", "setting": "[1]", "value": "−1", "unit": "%"},
      {"measurement": "Vision % of patients reporting AEs corrected for placebo", "setting": "[1]", "value": 0.7, "unit": "%"},
      {"measurement": "Constipation % of patients reporting AEs", "setting": "[1]", "value": 6.4, "unit": "%"},
      {"measurement": "Dry Mouth % of patients reporting AEs", "setting": "[1]", "value": 9.6, "unit": "%"},
      {"measurement": "Global Rating % Reduction from baseline", "setting": "[1]", "value": 21, "unit": "%"},
      {"measurement": "Loose Stool % Reduction from baseline", "setting": "[1]", "value": 31, "unit": "%"},
      {"measurement": "Pain Score % Reduction from baseline", "setting": "[1]", "value": 28, "unit": "%"},
      {"measurement": "Total AE % of patients reporting AEs", "setting": "[1]", "value": 22, "unit": "%"},
      {"measurement": "Urgency % Reduction from baseline", "setting": "[1]", "value": 24, "unit": "%"},
      {"measurement": "Vision % of patients reporting AEs", "setting": "[1]", "value": 1.3, "unit": "%"},
      {"measurement": "Constipation % of patients reporting AEs corrected for placebo", "setting": "[2]", "value": 5.9, "unit": "%"},
      {"measurement": "Dry Mouth % of patients reporting AEs corrected for placebo", "setting": "[2]", "value": 4.4, "unit": "%"},
      {"measurement": "Global Rating % Reduction from baseline corrected for placebo", "setting": "[2]", "value": "−1", "unit": "%"},
      {"measurement": "Loose Stool % Reduction from baseline corrected for placebo", "setting": "[2]", "value": 16, "unit": "%"},
      {"measurement": "Pain Score % Reduction from baseline corrected for placebo", "setting": "[2]", "value": 0, "unit": "%"},
      {"measurement": "Total AE % of patients reporting AEs corrected for placebo", "setting": "[2]", "value": 6, "unit": "%"},
      {"measurement": "Urgency % Reduction from baseline corrected for placebo", "setting": "[2]", "value": 8, "unit": "%"},
      {"measurement": "Vision % of patients reporting AEs corrected for placebo", "setting": "[2]", "value": 0.6, "unit": "%"},
      {"measurement": "Constipation % of patients reporting AEs", "setting": "[2]", "value": 7.8, "unit": "%"},
      {"measurement": "Dry Mouth % of patients reporting AEs", "setting": "[2]", "value": 9.6, "unit": "%"},
      {"measurement": "Global Rating % Reduction from baseline", "setting": "[2]", "value": 27, "unit": "%"},
      {"measurement": "Loose Stool % Reduction from baseline", "setting": "[2]", "value": 39, "unit": "%"},
      {"measurement": "Pain Score % Reduction from baseline", "setting": "[2]", "value": 37, "unit": "%"},
      {"measurement": "Total AE % of patients reporting AEs", "setting": "[2]", "value": 22, "unit": "%"},
      {"measurement": "Urgency % Reduction from baseline", "setting": "[2]", "value": 33, "unit": "%"},
      {"measurement": "Vision % of patients reporting AEs", "setting": "[2]", "value": 1.2, "unit": "%"},
      {"measurement": "Constipation % of patients reporting AEs corrected for placebo", "setting": "[3]", "value": 11.6, "unit": "%"},
      {"measurement": "Dry Mouth % of patients reporting AEs corrected for placebo", "setting": "[3]", "value": 19.8, "unit": "%"},
      {"measurement": "Global Rating % Reduction from baseline corrected for placebo", "setting": "[3]", "value": 4, "unit": "%"},
      {"measurement": "Loose Stool % Reduction from baseline corrected for placebo", "setting": "[3]", "value": 30, "unit": "%"},
      {"measurement": "Pain Score % Reduction from baseline corrected for placebo", "setting": "[3]", "value": 2, "unit": "%"},
      {"measurement": "Total AE % of patients reporting AEs corrected for placebo", "setting": "[3]", "value": 15, "unit": "%"},
      {"measurement": "Urgency % Reduction from baseline corrected for placebo", "setting": "[3]", "value": 22, "unit": "%"},
      {"measurement": "Vision % of patients reporting AEs corrected for placebo", "setting": "[3]", "value": 2.6, "unit": "%"},
      {"measurement": "Constipation % of patients reporting AEs", "setting": "[3]", "value": 13.5, "unit": "%"},
      {"measurement": "Dry Mouth % of patients reporting AEs", "setting": "[3]", "value": 25, "unit": "%"},
      {"measurement": "Global Rating % Reduction from baseline", "setting": "[3]", "value": 32, "unit": "%"},
      {"measurement": "Loose Stool % Reduction from baseline", "setting": "[3]", "value": 53, "unit": "%"},
      {"measurement": "Pain Score % Reduction from baseline", "setting": "[3]", "value": 39, "unit": "%"},
      {"measurement": "Total AE % of patients reporting AEs", "setting": "[3]", "value": 41, "unit": "%"},
      {"measurement": "Urgency % Reduction from baseline", "setting": "[3]", "value": 47, "unit": "%"},
      {"measurement": "Vision % of patients reporting AEs", "setting": "[3]", "value": 3.2, "unit": "%"},
      {"measurement": "Constipation % of patients reporting AEs corrected for placebo", "setting": "[4]", "value": 15.1, "unit": "%"},
      {"measurement": "Dry Mouth % of patients reporting AEs corrected for placebo", "setting": "[4]", "value": 30.7, "unit": "%"},
      {"measurement": "Global Rating % Reduction from baseline corrected for placebo", "setting": "[4]", "value": 8, "unit": "%"},
      {"measurement": "Loose Stool % Reduction from baseline corrected for placebo", "setting": "[4]", "value": 27, "unit": "%"},
      {"measurement": "Pain Score % Reduction from baseline corrected for placebo", "setting": "[4]", "value": 3, "unit": "%"},
      {"measurement": "Total AE % of patients reporting AEs corrected for placebo", "setting": "[4]", "value": 34, "unit": "%"},
      {"measurement": "Urgency % Reduction from baseline corrected for placebo", "setting": "[4]", "value": 26, "unit": "%"},
      {"measurement": "Vision % of patients reporting AEs corrected for placebo", "setting": "[4]", "value": 4.6, "unit": "%"},
      {"measurement": "Constipation % of patients reporting AEs", "setting": "[4]", "value": 17, "unit": "%"},
      {"measurement": "Dry Mouth % of patients reporting AEs", "setting": "[4]", "value": 35.9, "unit": "%"},
      {"measurement": "Global Rating % Reduction from baseline", "setting": "[4]", "value": 36, "unit": "%"},
      {"measurement": "Loose Stool % Reduction from baseline", "setting": "[4]", "value": 50, "unit": "%"},
      {"measurement": "Pain Score % Reduction from baseline", "setting": "[4]", "value": 40, "unit": "%"},
      {"measurement": "Total AE % of patients reporting AEs", "setting": "[4]", "value": 50, "unit": "%"},
      {"measurement": "Urgency % Reduction from baseline", "setting": "[4]", "value": 41, "unit": "%"},
      {"measurement": "Vision % of patients reporting AEs", "setting": "[4]", "value": 5.2, "unit": "%"}
    ]}
  ]
}
